In brackets after ≈: the same amount, converted by molar mass.
Legend:
[1] = Oral bioavailability in Sprague-Dawley rat at 5 mg/kg; type: ADME, organism-based; details: in vivo
[2] = Tmax in Sprague-Dawley rat at 5 mg/kg, po; type: ADME, organism-based; details: in vivo
[3] = Half life in Mongrel dog at 2.5 mg/kg, po or 1 mg/kg, iv; type: ADME, organism-based, Canis lupus familiaris; details: in vivo
[4] = Oral bioavailability in Mongrel dog at 2.5 mg/kg; type: ADME, organism-based, Canis lupus familiaris; details: in vivo
[5] = Cmax in Sprague-Dawley rat at 5 mg/kg, po; type: ADME, organism-based; set-up: dose 5 mg/kg, route po; details: in vivo
[6] = AUC (0 to infinity) in Sprague-Dawley rat at 5 mg/kg, po; type: ADME, organism-based; set-up: time infinity, dose 5 mg/kg, route po; details: in vivo
[7] = Volume of distribution at steady state in Sprague-Dawley rat at 5 mg/kg, po or 1.25 mg/kg, iv; type: ADME, organism-based; details: in vivo
[8] = Ratio of AUC (0 to 24 hrs) in liver to plasma in Sprague-Dawley rat at 5 mg/kg, po or 1.25 mg/kg, iv; type: ADME, organism-based; details: read-out: Ratio AUC
[9] = Volume of distribution at steady state in Mongrel dog at 2.5 mg/kg, po or 1 mg/kg, iv; type: ADME, organism-based, Canis lupus familiaris; details: in vivo
[10] = Tmax in Mongrel dog at 2.5 mg/kg, po; type: ADME, organism-based, Canis lupus familiaris; details: in vivo
[11] = Clearance in Sprague-Dawley rat at 5 mg/kg, po or 1.25 mg/kg, iv relative to liver blood flow; type: ADME, organism-based; details: in vivo
[12] = Metabolic stability in human liver microsomes assessed as intrinsic clearance; type: ADME, Microsome; details: read-out: CLH
[13] = Thermodynamic solubility of the compound at pH 7; type: physicochemical; details: buffer, read-out: Therm_solubility
[14] = Cmax in Mongrel dog at 2.5 mg/kg, po; type: ADME, organism-based, Canis lupus familiaris; set-up: dose 2.5 mg/kg, route po; details: in vivo
[15] = Half life in Sprague-Dawley rat at 5 mg/kg, po or 1.25 mg/kg, iv; type: ADME, organism-based; details: in vivo
[16] = AUC (0 to infinity) in Mongrel dog at 2.5 mg/kg, po; type: ADME, organism-based, Canis lupus familiaris; set-up: time infinity, dose 2.5 mg/kg, route po; details: in vivo
[17] = Clearance in Mongrel dog at 2.5 mg/kg, po or 1 mg/kg, iv relative to liver blood flow; type: ADME, organism-based, Canis lupus familiaris; details: in vivo
[18] = Volume of distribution at steady state in CD1 mouse at 10 mg/kg, po or 2.5 mg/kg, iv; type: ADME, organism-based; details: in vivo
[19] = Half life in CD1 mouse at 10 mg/kg, po or 2.5 mg/kg, iv; type: ADME, organism-based; details: in vivo
[20] = molecular target: Core antigen (Hepatitis B virus) (UniProt Q03732); experiment: Modulation of capsid assembly in HBV infected in human HepG2.2.15 cells assessed as fold shift in inhibition of viral DNA replication in presence of 40% normal human serum incubated for 3 days followed by replacement with fresh medium containing compound and measured after 3 days by QuantiGene assay; type: cell-based; details: time 6.0 day
Sequence of Core antigen (Hepatitis B virus) (Q03732 as listed by the source): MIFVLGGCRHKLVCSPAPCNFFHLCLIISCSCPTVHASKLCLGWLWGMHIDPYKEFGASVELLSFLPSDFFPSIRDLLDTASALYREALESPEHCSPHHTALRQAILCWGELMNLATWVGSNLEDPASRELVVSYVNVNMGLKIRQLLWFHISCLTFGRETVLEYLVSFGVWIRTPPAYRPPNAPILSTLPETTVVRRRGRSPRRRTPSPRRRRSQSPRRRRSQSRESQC

[21] = test system: Cytochrome P450; experiment: Induction of CYP (unknown origin); type: ADME, protein assay; details: human
[22] = Clearance in CD1 mouse at 10 mg/kg, po or 2.5 mg/kg, iv relative to liver blood flow; type: ADME, organism-based; details: in vivo
[23] = test system: Cytochrome P450; experiment: Inhibition of CYP (unknown origin); type: ADME, protein assay; details: human
[24] = Oral bioavailability in CD1 mouse at 10 mg/kg; type: ADME, organism-based; details: in vivo
[25] = AUC (0 to infinity) in CD1 mouse at 10 mg/kg, po; type: ADME, organism-based; set-up: time infinity, dose 10 mg/kg, route po; details: in vivo
[26] = Tmax in CD1 mouse at 10 mg/kg, po; type: ADME, organism-based; details: in vivo
[27] = Cmax in CD1 mouse at 10 mg/kg, po; type: ADME, organism-based; set-up: dose 10 mg/kg, route po; details: in vivo
[28] = Half life in Sprague-Dawley rat at 0.6 mg/kg, iv; type: ADME, organism-based; details: in vivo
[29] = Half life in CD1 mouse at 2 mg/kg, iv; type: ADME, organism-based; details: in vivo
[30] = Clearance in CD1 mouse at 2 mg/kg, iv; type: ADME, organism-based; details: in vivo
[31] = Volume of distribution at steady state in Sprague-Dawley rat at 0.6 mg/kg, iv; type: ADME, organism-based; details: in vivo, read-out: Vdss
[32] = Volume of distribution at steady state in CD1 mouse at 2 mg/kg, iv; type: ADME, organism-based; details: in vivo, read-out: Vdss
[33] = Clearance in Sprague-Dawley rat at 0.6 mg/kg, iv; type: ADME, organism-based; details: in vivo
[34] = Solubility of the compound; type: physicochemical

C[C@@H]1Cc2nn3c(c2CN1C(=O)Nc1ccc(F)c(C#N)c1)C(=O)N(C)O[C@@H](COCC(F)F)C3
bioavailability [1]: 71% | Tmax ([2]; Sprague-Dawley, read-out: Tmax): 1 h | half-life [3]: 5.6 h | bioavailability [4]: 70% | Cmax ([5]; Sprague-Dawley, read-out: Cmax): 533 ng/mL | AUC(0-inf) [6]: 3840 ng·h/mL | Vdss [7]: 2 L/kg | Kp [8]: 3.8 | Vdss [9]: 1.2 L/kg | Tmax [10]: 0.75 h | CLH [11]: 20% | CLint scaled [12]: < 5 mL/min/kg | solubility thermodynamic [13]: 22 µM (≈ 10.8 µg/mL) | Cmax [14]: 1170 ng/mL | half-life ([15]; Sprague-Dawley): 1.8 h | AUC(0-inf) [16]: 10600 ng·h/mL | CLH [17]: 9%

C[C@@H]1Cc2nn3c(c2CN1C(=O)Nc1ccc(F)c(Cl)c1)C(=O)N(C)O[C@@H](CO)C3
CLint scaled [12]: 11 mL/min/kg | solubility thermodynamic [13]: 183 µM (≈ 80.1 µg/mL)

CN1O[C@H](CO)Cn2nc3c(c2C1=O)CN(C(=O)Nc1ccc(F)c(Cl)c1)CC3
CLint scaled [12]: 9 mL/min/kg

C[C@@H]1Cc2nn3c(c2CN1C(=O)Nc1ccc(F)c(Cl)c1)C(=O)N(C)O[C@@H](CN(C)C)C3
CLint scaled [12]: 19 mL/min/kg | solubility thermodynamic [13]: 176 µM (≈ 81.8 µg/mL)

CN(OCCO)C(=O)c1n[nH]c2c1CN(C(=O)Nc1cccc(Cl)c1)CC2
CLint scaled [12]: 31 mL/min/kg | solubility thermodynamic [13]: 161 µM (≈ 63.4 µg/mL)

C[C@@H]1Cc2nn3c(c2CN1C(=O)Nc1ccc(F)c(C#N)c1)C(=O)N(C)O[C@@H](CF)C3
Vdss [18]: 6.3 L/kg | half-life [19]: 7.9 h | bioavailability [1]: 7.4% | fold change (FC) [20]: 2 | Tmax ([2]; po, 5 mg/kg): 0.5 h | half-life [3]: 5.4 h | bioavailability [4]: 79% | Activity [21]: Not Active | Cmax [5]: 20.1 ng/mL | AUC(0-inf) [6]: 71.8 ng·h/mL | Vdss [7]: 2.5 L/kg | CLH [22]: 21% | inhibition (INH) [23]: Not Active | Vdss [9]: 1.5 L/kg | bioavailability [24]: 66% | Tmax [10]: 1 h | CLH [11]: 93% | CLint scaled [12]: < 5 mL/min/kg | solubility thermodynamic [13]: 63 µM (≈ 27.1 µg/mL) | Cmax [14]: 1310 ng/mL | AUC(0-inf) [25]: 4340 ng·h/mL | t1/2 ([15]; po, 5 mg/kg): 0.4 h | Tmax [26]: 0.4 h | Cmax [27]: 1420 ng/mL | AUC(0-inf) [16]: 9550 ng·h/mL | CLH [17]: 11%

C[C@@H]1Cc2nn3c(c2CN1C(=O)Nc1ccc(F)c(C(F)(F)F)c1)C(=O)N(C)O[C@@H](CO)C3
half-life [28]: 1.4 h | half-life [29]: 1.6 h | clearance [30]: 58 mL/min/kg | Vd [31]: 2.3 L/kg | CLint scaled [12]: 7.2 mL/min/kg | solubility thermodynamic [13]: 172 µM (≈ 81.1 µg/mL) | Vd [32]: 5.3 L/kg | clearance [33]: 24 mL/min/kg

Cc1cc(NC(=O)N2Cc3c(nn4c3C(=O)N(C)O[C@@H](CO)C4)C[C@H]2C)ccc1F
half-life [28]: 0.7 h | half-life [29]: 1.5 h | clearance [30]: 39 mL/min/kg | Vd [31]: 2.1 L/kg | CLint scaled [12]: < 5 mL/min/kg | solubility thermodynamic [13]: > 200 µM | Vd [32]: 2.2 L/kg | clearance [33]: 47 mL/min/kg

C[C@@H]1Cc2nn3c(c2CN1C(=O)Nc1ccc(F)c(C#N)c1)C(=O)N(C)O[C@@H](CO)C3
half-life [28]: 0.5 h | half-life [29]: 1.2 h | clearance [30]: 96 mL/min/kg | Vd [31]: 1.9 L/kg | CLint scaled [12]: < 5 mL/min/kg | solubility thermodynamic [13]: > 200 µM | Vd [32]: 4 L/kg | clearance [33]: 66 mL/min/kg

C[C@@H]1Cc2nn3c(c2CN1C(=O)Nc1ccc(F)c(C#N)c1)C(=O)N(C)O[C@@H](C(=O)N(C)CC(F)F)C3
CLint scaled [12]: 14 mL/min/kg | solubility thermodynamic [13]: 45 µM (≈ 23.4 µg/mL)

CCOC(=O)c1n[nH]c2c1CN(C(=O)Nc1cccc(Cl)c1)CC2
CLint scaled [12]: 171 mL/min/kg

CC(C)ON(C)C(=O)c1n[nH]c2c1CN(C(=O)Nc1cccc(Cl)c1)CC2
CLint scaled [12]: 65 mL/min/kg

CCCC(=O)c1n[nH]c2c1CN(C(=O)Nc1cccc(Cl)c1)CC2
CLint scaled [12]: 214 mL/min/kg

C[C@H]1Cc2[nH]nc(-c3cscn3)c2CN1C(=O)Nc1ccc(F)c(C#N)c1
solubility [34]: 45 µM (≈ 17.2 µg/mL)

C[C@@H]1Cc2nn3c(c2CN1C(=O)Nc1ccc(F)c(C#N)c1)C(=O)N(C)OCC3
CLint scaled [12]: < 5 mL/min/kg | solubility thermodynamic [13]: 80 µM (≈ 31.9 µg/mL)

CON(C)C(=O)c1n[nH]c2c1CN(C(=O)Nc1cccc(Cl)c1)CC2
CLint scaled [12]: 33 mL/min/kg

CN1OC(CO)Cn2nc3c(c2C1=O)CN(C(=O)Nc1ccc(F)c(Cl)c1)CC3 (racemic)
CLint scaled [12]: 8 mL/min/kg | solubility thermodynamic [13]: 183 µM (≈ 77.6 µg/mL)

CN(OC1COC1)C(=O)c1n[nH]c2c1CN(C(=O)Nc1cccc(Cl)c1)CC2
CLint scaled [12]: 8 mL/min/kg | solubility thermodynamic [13]: 183 µM (≈ 74.3 µg/mL)

CN1O[C@@H](CO)Cn2nc3c(c2C1=O)CN(C(=O)Nc1ccc(F)c(Cl)c1)CC3
CLint scaled [12]: 7 mL/min/kg

CCN(C)C(=O)c1n[nH]c2c1CN(C(=O)Nc1cccc(Cl)c1)CC2
CLint scaled [12]: 87 mL/min/kg

O=C(Nc1cccc(Cl)c1)N1CCc2[nH]nc(C(=O)N3CCCCO3)c2C1
CLint scaled [12]: 38 mL/min/kg

O=C(Nc1cccc(Cl)c1)N1CCc2[nH]nc(-c3ccccc3)c2C1
CLint scaled [12]: 192 mL/min/kg

CCON(C)C(=O)c1n[nH]c2c1CN(C(=O)Nc1cccc(Cl)c1)CC2
CLint scaled [12]: 55 mL/min/kg
